Experimental data published in ChEMBL document CHEMBL1136749, “Central neural tumor destruction by controlled release of a synthetic glycoside dispersed in a biodegradable polymeric matrix” (J Med Chem, 2003).
pIC50: −log10 of the molar value.

System: U373 MG
Test: Antimitotic activity against human glioma line U-373 cell by measuring the incorporation of [3H]thymidine in cultures of the cells
Assay type: functional, cell-based, U-373MG ATCC

pIC50: 4.37
SMILES: CCCCCCCCO[C@H]1O[C@@H](COCC(CO)(CO)CO)[C@@H](O)[C@H](O)[C@@H]1NC(C)=O
